# From publication PMC11500415, “Chemical inhibition of stomatal differentiation by perturbation of the master-regulatory bHLH heterodimer via an ACT-Like domain” (Nature Communications, 2024)
# Where “and” joins values, the source holds several entries; their conditions need not be identical. Equal values may be shown once.
# What was measured:
# [1] = test system: Arabidopsis stomatal development mutants (spch, mute, fama, er, erl1, erl2, hdg2, atml1, scrm, scrm2, scrm-D and suppressors); experiment: Stomatal development bioassay in mutant seedlings, liquid culture; assay type: in vivo; details: 50 μM; for meristemoids density: single seedlings n=8 (Fig. 3c)
# Description: Arabidopsis accession Columbia (Col-0) was used as wild-type. […] Their genotype and transcript reduction were confirmed. The presence of transgenes/mutant alleles were confirmed by genotyping. For liquid culture with Stomidazolone (AYSJ929, compound 3), the analogs (AYSJ1059 (compound 5) and AYSJ1061 (compound 6)), degraded compound lzx103 (compound 4), and SIM3* (compound 7), all compounds were dissolved in dimethyl sulfoxide (DMSO, Molecular biology grade, Fujifilm Wako, Japan 046-21981), Col-0 seeds were sown in 96-well plates (TL5003; True Line) containing 95 μL of 1/2 MS media containing 0.5% sucrose with rotary shaking at 140 rpm under continuous light at 22 °C. Five μL of compounds were dissolved in DMSO at 10 mM and diluted with liquid 1/2 MS media to 1 mM and added on 1-day-old seedlings (final concentration, 50 μM). Seedlings were incubated for 8 days, and at day 9 seedling abaxial cotyledons were observed through confocal microscopy. For liquid culture of scrm-D_S343 and scrm-D_S423, 1/2 MS liquid media without sucrose was used. For the solid culture, 0, 20, 50 or 100 μM Stomidazolone were solidified with low-melting agarose (5805S, PrimeGelTM Agarose LMT 1-20 K, TAKARA Bio). Briefly, 1/2 MS salt, 0.5% sucrose, and 0.8% low melting agarose were mixed in water and autoclaved. After cooling the medium at around 30 °C, Stomidazolone (500x, dissolved in DMSO) was added and poured into 90 mm petri dishes (Asnol Petri Dish JP φ90 x 15 mm, 3-1491-01, AS ONE). Col-0 seeds were sown on Stomidazolone-containing 1/2 MS agarose media and grown under continuous light for 9 days.
# For confocal microscopy, cell peripheries of seedlings were visualized with propidium iodide (Sigma, P4170). Images were acquired using LSM800 or LSM700 (Zeiss) using a 20x lens. The GFP, YFP reporter and PI signals were detected with excitation at 488 nm and an emission filter of 410 to 546 nm, at 488 nm and an emission filter of 410 to 546 nm, and with excitation at 561 nm and 582–617 nm emission range, respectively. Raw data were collected with 1024 × 1024 pixel images. For qualitative image presentation, Adobe Photoshop CC was used to trim and uniformly adjust the contrast/brightness.
# For quantitative analysis of the abaxial leaf epidermis, confocal images were taken on the days after germination as indicated in the Figure legends. Preparation of images was done as described previously[32],[70]. For counting epidermal cell types, stomatal density, stomatal precursor cells (meristemoids), total stomata-lineage cells (stomata and meristemoids) were calculated by counting cell types in an area of 0.4 mm^2 (0.63 mm × 0.63 mm) and plotted as per mm^2. A series of Z-stack confocal images was obtained to obtain images covering the epidermis and capturing GFP/YFP signal from the reporter lines. The area and the number of epidermal cells were quantified by using FIJI-ImageJ. Statistical analyses were performed using R ver. 4.0.2. Sample sizes (n) are indicated and defined in each legend. For the multiple sample comparison, 1-way ANOVA was performed followed by a post hoc Tukey HSD test. For the two-sample comparison, Student’s T-test was performed. Graphs were generated using R ggplot2 package. For all boxplots, each box represents IQR (interquartile range), in which top, middle line, and bottom indicating 75, 50, and 25 percentiles, respectively, and the bar representing maximum to minimal values. Each magenta dot represents jittered individual data point. The datapoints that go beyond the bar are outliers, which are indicated as black dots. If the data point is greater than Q3 + 1.5*IQR (above the third quartile is greater than 1.5 times of the interquartile range) or less than Q1 − 1.5*IQR, that data point is classified as outlier. The color of Boxplot graph was based on ColorBrewer.org. The value of n, the number of each experiment or samples, the means of error bars, and how statistical significance was defined are indicated in a relevant figure legend. […]
# MUTE+AD (control yeast) = biological target: T1, MUTE+AD (control yeast) (Arabidopsis thaliana, UniProt Q9M8K6); experiment: Y2H quantitative α-galactosidase assay, control pair MUTE+AD; assay type: cell-based; details: individual replicates, listed as AYSJ929
# T1 construct: expressed in transfected cells; host or cells: yeast strain AH109
# T1 sequence (Q9M8K6 1-202): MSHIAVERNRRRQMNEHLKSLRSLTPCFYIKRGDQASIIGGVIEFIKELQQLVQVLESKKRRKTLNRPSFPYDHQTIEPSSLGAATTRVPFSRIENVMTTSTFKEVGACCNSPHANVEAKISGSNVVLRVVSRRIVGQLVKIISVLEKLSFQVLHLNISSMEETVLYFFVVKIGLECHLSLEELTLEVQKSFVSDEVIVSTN
# Text: Supplement 41467_2024_53214_MOESM7_ESM.xlsx, sheet "Fig.6b" | column: a-galactosidase [milliunits /(ml x cell)]
# [2] = er erl1, single seedlings n=8 (Fig. 4f)
# [3] = scrm-D_S343, single seedlings n=8 (Fig. 5n)
compound,measurement,setting,value
O=C1C(c2ccccc2)=NC(NS(=O)(=O)c2ccccc2)(c2ccccc2)N1S(=O)(=O)c1ccccc1 (stereo not shown) [Stomidazolone],effect on epidermal phenotype (in words),[1]; er (er-105),the number of stomata drastically decreased and the meristemoids vastly increased
same,effect on epidermal phenotype (in words),[1]; er erl1,"did not reduce the number of stomata, although it increased the number of meristemoids"
same,Stomata density,[1]; [2],204 per mm2 and 275 per mm2 and 292 per mm2
same,Total (stomata+meristemoid) density,[1]; [2],382 per mm2 and 272 per mm2 and 360 per mm2 and 323 per mm2 and 292 per mm2 and 347 per mm2 and 369 per mm2
same,effect on epidermal phenotype (in words),[1]; er erl1 erl2,insensitive
same,Meristemoid density,"[1]; er erl1 erl2, single seedlings n=8 (Fig. 4j, replotted 4k)",0 per mm2
same,effect on epidermal phenotype (in words),[1]; er erl2,The number of arrested meristemoids is even more increased
same,effect on epidermal phenotype (in words),[1]; fama,significantly reduced the number of fama tumors whereas increasing the number of arrested meristemoids
same,effect on epidermal phenotype (in words),[1]; hdg2,increased the meristemoid numbers of hdg2 epidermis while the total numbers of stomata and meristemoids were unaffected
same,Total (stomata+meristemoid) density,"[1]; hdg2 (hdg2-2), single seedlings n=8 (Fig. 4m)",149 per mm2 and 112 per mm2 and 171 per mm2 and 93 per mm2 and 137 per mm2 and 107 per mm2 and 141 per mm2
same,effect on epidermal phenotype (in words),[1]; hdg2 atml1,hypersensitivity
same,Total (stomata+meristemoid) density,"[1]; hdg2 atml1 (hdg2-2 atml1-3), single seedlings n=8 (Fig. 4o)",92 per mm2 and 141 per mm2 and 156 per mm2 and 153 per mm2 and 112 per mm2 and 109 per mm2
same,effect on epidermal phenotype (in words),[1]; mute,not enhanced
same,meristemoids density,[1]; mute (mute-1),296 per 1 mm2 and 243 per 1 mm2 and 204 per 1 mm2 and 289 per 1 mm2 and 350 per 1 mm2 and 267 per 1 mm2 and 187 per 1 mm2
same,effect on epidermal phenotype (in words),[1]; scrm2-1,reduction of the number of stomata with meristemoid arrests
same,Stomatal index SI (%),"[1]; scrm2-1, single seedlings n=8 (Fig. 5f)",25.2% and 23.5% and 22.4% and 18.0% and 27.0% and 24.1% and 26.7% and 15.5%
same,effect on epidermal phenotype (in words),[1]; scrm (ice1-2),severely reduced stomatal lineage initiation
same,effect on epidermal phenotype (in words),[1]; scrm scrm2-1,no effects
same,Stomatal index SI (%),"[1]; scrm scrm2-1, single seedlings n=7 (Fig. 5h)",0%
same,effect on epidermal phenotype (in words),[1]; scrm-D,not affected
same,Stomatal index SI (%),"[1]; scrm-D, single seedlings n=8 (Fig. 5j)",100.0% and 99.0% and 98.0%
same,SI (%),[1]; [3],10.3% and 14.9% and 8.1% and 11.9% and 12.8% and 12.5% and 9.6% and 12.1%
same,small cells index (%),[1]; [3],31.8% and 53.1% and 60.4% and 54.1% and 50.8% and 47.7% and 36.1%
same,effect on epidermal phenotype (in words),[1]; scrm-D_S343 and scrm-D_S423,triggered excessive formation of arrested meristemoids
same,effect on epidermal phenotype (in words),[1]; scrm-D_S343 scrm2-1 and scrm-D_S423 scrm2-1,insensitivity
same,SI (%),"[1]; scrm-D_S423, single seedlings n=8 (Fig. 5p)",0.7% and 1.2% and 0.0% and 1.4% and 3.0%
same,effect on epidermal phenotype (in words),[1]; spch,no effects
same,meristemoids density,[1]; spch (spch-3),0 per 1 mm2
same,a-galactosidase,MUTE+AD (control yeast); 10 µM,0.24 milliunits /(ml x cell) and 0.60 milliunits /(ml x cell) and 0.40 milliunits /(ml x cell)
same,a-galactosidase,MUTE+AD (control yeast); 50 µM,0.22 milliunits /(ml x cell) and 0.36 milliunits /(ml x cell) and 0.19 milliunits /(ml x cell)
same,a-galactosidase,MUTE+AD (control yeast); 100 µM,0.20 milliunits /(ml x cell) and 0.52 milliunits /(ml x cell) and 0.42 milliunits /(ml x cell)
